Here are results for 26 compounds from patent US20100144708A1, “HETEROCYCLIC COMPOUNDS CONTAINING NITROGEN ATOMS OR PHARMACEUTICALLY ACCEPTABLE SALTS THEREOF, PROCESS FOR THE PREPARATION THEREOF AND PHARMACEUTICAL COMPOSITION COMPRISING THE SAME FOR TREATMENT OF CANCER” (Korea Research Instititute of Bioscience and Biotechnology, priority 2006, published 2010).

Common to all, as to type: cell-based, Human
In assay [1] the test system is PC-3 (prostate cancer). The assay can be described thus: Test for inhibition of tumor cell growth (SRB), PC-3. The conditions noted are these: 48 hours, SRB staining; for GI50: Homo sapiens, read-out: GI50 PC-3 (prostate ancer). How it is done: (§1) Human tumor cell lines, PC-3 (prostate cancer, ATCC, USA), MBA-MB-231 (breast cancer, ATCC, USA), ACHN (kidney cancer, ATCC, USA), and NUGC-3 (gastric cancer, ATCC, USA) were cultured in RPMI 1640 media containing 10% fetal bovine serum (FBS).
(§2) In order to measure anticancer activity, a suitable concentration of cells in RPMI 1640 media containing 5% fetal bovine serum (about 5×10^4 cells/□) was aliquotted in 96-well plates, and cultured in 5% CO2 at 37° C. On day one after aliquoting the cells, before the cells were treated with the compounds, in order to determine their concentration, 50[…] of 50% trichloroacetic acid was added to each well of time zero (T0) plate, and cells were fixed to determine zero point. The cells treated with the compounds were fixed on each well having 50[…] of 50% trichloroacetic acid after 48 hours. The final concentrations of the test compounds were 0.01, 0.03, 0.1, 0.3, and 1[…]/□. The fixed plate was washed with water and dried, and then 100[…] of 0.4% sulphorhodamine B (SRB) dissolved in 0.1% acetic acid was added to the each well to stain the cells. The plate was allowed to stand for 30 minutes, and then washed with 0.1% acetic acid. Then, the plate was dried at room temperature, and treated with 10 mM tris base (pH 10.5) to dissolve staining reagent. An absorbance measured at 540 nm was calculated as a percentage of the control group, and then the concentration of the compound that inhibited tumor cell growth (GI50(□/□)) by 50% was determined.

Assay [2] relates to NUGC-3 (gastric cancer). The assay can be described thus: Test for inhibition of tumor cell growth (SRB), NUGC-3. The following applies: 48 hours, SRB staining; for GI50: Homo sapiens, NUGC-3. How it is done: as §1, §2
Assay [3] has as its system ACHN (kidney cancer). Nature of the assay: Test for inhibition of tumor cell growth (SRB), ACHN. The following applies: 48 hours, SRB staining; for GI50: Homo sapiens, ACHN. How it is done: as §1, §2
(In general: The SRB assay estimates cell density from bound dye.)

The subject of assay [4] is MBA-MB-231 (breast cancer). The assay can be described thus: Test for inhibition of tumor cell growth (SRB), MBA-MB-231. The conditions noted are these: 48 hours, SRB staining; for GI50: Homo sapiens. How it is done:
as §1, §2

For orientation: GI50 means the concentration giving 50% growth inhibition. `CCCCCCCCCCCCCCCCCCCC(=O)N1CC[N+](C)(C)CC1` [Example 31, 4-icosanoyl-1,1-dimethylpiperazin-1-ium iodide]: the GI50 was found to be 0.31 µg/mL in assay [1], 0.42 µg/mL in assay [2], 1.39 µg/mL in assay [3] and 1.63 µg/mL in assay [4].

Consider `CCCCCCCCCCCS(=O)(=O)N1CC[N+](C)(Cc2ccccc2)CC1` [Example 65, 1-benzyl-1-methyl-4-(undecane-1-sulfonyl)piperazin-1-ium bromide], for which the GI50 in assay [1] was determined as 0.42 µg/mL; in assay [2], 0.37 µg/mL; in assay [3] it was 1.16 µg/mL; in assay [4], 0.82 µg/mL.

On to `C=CCCC[N+]1(C)CCN(C(=O)CCCCCCCCCCCCCCC)CC1.[Br-]` [Example 19, 4-hexadecanoyl-1-methyl-1-pent-4-enyl-piperazin-1-ium bromide], for which the GI50 stood at 0.55 µg/mL in assay [1], 0.63 µg/mL in assay [2], 1.69 µg/mL in assay [3] and 1.7 µg/mL in assay [4].

Consider `C=CC[N+]1(C)CCN(S(=O)(=O)CCCCCCCCCCCCCCCCCC)CC1` [Example 74, 1-allyl-1-methyl-4-(octadecane-1-sulfonyl)piperazin-1-ium bromide], for which the GI50 is 1 µg/mL in assay [1], 0.85 µg/mL in assay [2], 1.25 µg/mL in assay [3] and 1.72 µg/mL in assay [4].

Consider `CCCCCCCCCS(=O)(=O)N1CC[N+](C)(CC)CC1` [Example 99, 1-ethyl-1-methyl-4-(nonane-1-sulfonyl)piperazin-1-ium iodide], for which the concentration for 50% growth inhibition (GI50) in assay [1], in assay [2], in assay [3] and in assay [4] was > 10 µg/mL each time.

Take `CCCCCCCCCCCCS(=O)(=O)N1CC[N+](C)(Cc2ccccc2)CC1` [Example 81, 1-benzyl-4-(dodecane-1-sulfonyl)-1-methyl-piperazin-1-ium bromide]: the GI50 amounted to 0.61 µg/mL in assay [1], 0.58 µg/mL in assay [2], 1.48 µg/mL in assay [3] and 1.49 µg/mL in assay [4].

On to `CCCCCCCCCCCCCC(=O)N1CC[N+](CC)(Cc2cccc(C)c2)CC1` [Example 52, 1-ethyl-1-(3-methylbenzyl)-4-tetradecanoylpiperazin-1-ium bromide], for which the 50% growth inhibitory concentration (GI50) was 0.51 µg/mL in assay [1], 0.88 µg/mL in assay [2], 2.08 µg/mL in assay [3] and 1.6 µg/mL in assay [4].

For `C=CC[N+]1(CC)CCN(C(=O)CCCCCCCCCCCCC)CC1` [Example 16, 1-allyl-1-ethyl-4-tetradecanoyl-piperazin-1-ium bromide], the GI50 in assay [1] was 0.41 µg/mL; in assay [2], 0.76 µg/mL; in assay [3], 4.26 µg/mL; in assay [4] it was 2.49 µg/mL.

As for `C=CC[N+]1(CC)CCN(S(=O)(=O)CCCCCCCCC)CC1` [Example 101, 1-allyl-1-ethyl-4-(nonane-1-sulfonyl)piperazin-1-ium bromide], the GI50 in assay [1] is 2.34 µg/mL; in assay [2], 3.28 µg/mL; in assay [3], > 10 µg/mL; in assay [4] it was > 10 µg/mL.

As for `CCCCCCCCCCCCCC(=O)N1CCC[N+](C)(Cc2cccc([N+](=O)[O-])c2)CC1` (centres unmarked) [Example 128, 1-methyl-1-(3-nitrobenzyl)-4-tetradecanoyl-1,4-diazepan-1-ium bromide], the GI50 was 0.18 µg/mL in assay [1], 0.46 µg/mL in assay [2], 0.82 µg/mL in assay [3] and 0.71 µg/mL in assay [4].

In the case of “1-(4-fluorobenzyl)-1-methyl-4-(octane-1-sulfonyppiperazin-1-ium bromide [Example 63]”, the “GI50 PC-3 (prostate ancer)” value in assay [1] was >10 µg/mL. The “GI50 NUGC-3 (gastric cancer)” value in assay [2] is >10 µg/mL. Moreover, in assay [3], the “GI50 ACHN (kidney cancer)” value is >10 µg/mL. The “GI50 MBA-MB-231 (breast cancer)” value in assay [4] was >10 µg/mL.

With `CCCCCCCCCCS(=O)(=O)N1CC[N+](C)(Cc2ccccc2)CC1` [Example 76, 1-benzyl-4-(decane-1-sulfonyl)-1-methyl-piperazin-1-ium bromide], the concentration for 50% growth inhibition (GI50) came out at 0.54 µg/mL in assay [1], 0.99 µg/mL in assay [2], 3.5 µg/mL in assay [3] and 4.02 µg/mL in assay [4].

Consider `CCCCCCCCCCCCCCCCCC(=O)N1CC[N+](C)(Cc2ccccc2)CC1` [Example 25, 1-benzyl-1-methyl-4-octadecanoyl-piperazin-1-ium bromide], for which the GI50 came to 0.4 µg/mL in assay [1], 1.05 µg/mL in assay [2], 2.84 µg/mL in assay [3] and 0.82 µg/mL in assay [4].

Take `CCCCCCCCCCCCCCCCCC(=O)N1CC[N+](CC)(Cc2cccc(C)c2)CC1` [Example 58, 1-ethyl-1-(3-methylbenzyl)-4-stearoylpiperazin-1-ium bromide]: the GI50 in assay [1] is 0.63 µg/mL; in assay [2], 0.46 µg/mL; in assay [3] it was 0.93 µg/mL; in assay [4], 1.52 µg/mL.

For `CCCCCCCCCCCCCCCCCC(=O)N1CCC[N+](C)(C)CC1` [Example 129, 1,1-dimethyl-4-stearoyl-1,4-diazepan-1-ium iodide], the 50% growth inhibitory concentration (GI50) amounted to 0.24 µg/mL in assay [1], 0.26 µg/mL in assay [2], 0.57 µg/mL in assay [3] and 0.67 µg/mL in assay [4].

Turning to `CCCCCCCCCCCCCCCCCCS(=O)(=O)N1CC[N+](CC)(Cc2ccccc2)CC1` [Example 73, 1-benzyl-1-ethyl-4-(octadecane-1-sulfonyl)piperazin-1-ium bromide], the GI50 in assay [1] was found to be 0.8 µg/mL; in assay [2], 0.85 µg/mL; in assay [3], 1.87 µg/mL; in assay [4], 1.75 µg/mL.

With `CCCCCCCCCCCCCCCC(=O)N1CC[N+](C)(Cc2ccc(OC)cc2)CC1.[Cl-]` [Example 18, 4-hexadecanoyl-1-(4-methoxy-benzyl)-1-methyl-piperazin-1-ium chloride], the GI50 is 0.49 µg/mL in assay [1], 1.16 µg/mL in assay [2], 1.31 µg/mL in assay [3] and 0.92 µg/mL in assay [4].

Turning to `CCCCCCCCCCCCCCCCCCCCCC(=O)N1CC[N+](C)(C)CC1` [Example 1, 4-docosanoyl-1,1-dimethylpiperazin-1-ium iodide], the GI50 in assay [1] stood at 0.99 µg/mL; in assay [2] it was 1.15 µg/mL; in assay [3], 2.39 µg/mL; in assay [4], 3.51 µg/mL.

As for `CCCCCCCCCCCC(=O)N1CCC[N+](C)(C)CC1` [Example 117, 4-dodecanoyl-1,1-dimethyl-1,4-diazepan-1-ium iodide], the GI50 in assay [1] was found to be 0.5 µg/mL; in assay [2] it was 0.6 µg/mL; in assay [3], 1.07 µg/mL; in assay [4], 2.68 µg/mL.

As to `CCCCCCCCCCCCCCCCCCCC(=O)N1CC[N+](C)(Cc2ccccc2)CC1` [Example 32, 1-benzyl-4-icosanoyl-1-methylpiperazin-1-ium bromide], the GI50 in assay [1] is 0.59 µg/mL; in assay [2] it was 1.1 µg/mL; in assay [3], 1.89 µg/mL; in assay [4], 1.66 µg/mL.

With `CCCCCCCCCCCCCCCCCC(=O)N1CC[N+](CC)(Cc2ccc(Br)cc2)CC1` [Example 50, 1-(4-bromobenzyl)-1-ethyl-4-stearoylpiperazin-1-ium bromide], the GI50 in assay [1] came out at 0.95 µg/mL; in assay [2], 2.49 µg/mL; in assay [3] it was 1.94 µg/mL; in assay [4] it was 2.3 µg/mL.

As for `CCCCCCCCCCS(=O)(=O)N1CC[N+](C)(Cc2cccc(C)c2)CC1` [Example 106, 4-(decane-1-sulfonyl)-1-methyl-1-(3-methylbenzyl)piperazin-1-ium bromide], the GI50 turned out to be 0.61 µg/mL in assay [1], 1.6 µg/mL in assay [2], 4.13 µg/mL in assay [3] and 3.56 µg/mL in assay [4].

As for `C=CC[N+]1(CC)CCN(C(=O)CCCCCCCCCCCCCCC)CC1.[Br-]` [Example 22, 1-allyl-1-ethyl-4-hexadecanoyl-piperazin-1-ium bromide], the GI50 in assay [1] is 0.37 µg/mL; in assay [2], 0.27 µg/mL; in assay [3], 0.5 µg/mL; in assay [4], 0.68 µg/mL.

Take `CCCCCCCCCCCCCCCCCC(=O)N1CC[N+](CC)(Cc2cccc([N+](=O)[O-])c2)CC1` [Example 49, 1-ethyl-1-(3-nitrobenzyl)-4-stearoylpiperazin-1-ium bromide]: the GI50 was 3.14 µg/mL in assay [1], 3.63 µg/mL in assay [2], 3.08 µg/mL in assay [3] and 5.38 µg/mL in assay [4].

For `CCCCCCCCCCCCS(=O)(=O)N1CC[N+](CC)(Cc2ccccc2)CC1` [Example 84, 1-benzyl-4-(dodecane-1-sulfonyl)-1-ethyl-piperazin-1-ium bromide], the 50% growth inhibitory concentration (GI50) in assay [1] came to 0.74 µg/mL; in assay [2] it was 0.75 µg/mL; in assay [3] it was 1.12 µg/mL; in assay [4], 1.35 µg/mL.

On to `CCCCCCCCCCCCCCCC(=O)N1CCC[N+](C)(Cc2ccc(F)cc2)CC1.[Br-]` (centres unmarked) [Example 121, 1-(4-fluorobenzyl)-1-methyl-4-palmitoyl-1,4-diazepan-1-him bromide], for which the “GI50 PC-3 (prostate ancer)” value in assay [1] was determined as 0.46 µg/mL. Further, the “GI50 NUGC-3 (gastric cancer)” value in assay [2] was found to be 0.63 µg/mL. In assay [3], the “GI50 ACHN (kidney cancer)” value was determined as 1.09 µg/mL. For the same compound, the “GI50 MBA-MB-231 (breast cancer)” value in assay [4] was 0.83 µg/mL.
